Results reported in ChEMBL document CHEMBL1201862, “PubChem BioAssay data set” (2004).
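Assay format: 96-well plates, 48-hour exposure. GI50 is the concentration that inhibits growth by half.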 Activity calls are given as the source filed them. Rule as the data show it: active = GI50 up to about 1.1 µM and inactive = higher.

Experiments:
Assay in all cases: growth of human tumour cells (NCI), 48 h
OVCAR-3 = tested on: OVCAR-3
UACC-257 = tested on: UACC-257
U-251 = tested on: U-251
IGROV-1 = tested on: IGROV-1
A498 = tested on: A498
MDA-MB-231 = tested on: MDA-MB-231
CAKI-1 = tested on: CAKI-1
DU-145 = tested on: DU-145
PC-3 = tested on: PC-3
NCI/ADR-RES = tested on: NCI/ADR-RES
Malme-3M = tested on: Malme-3M
MDA-N = tested on: MDA-N
OVCAR-8 = tested on: OVCAR-8
ACHN = tested on: ACHN
SN12C = tested on: SN12C
MCF7 = tested on: MCF7
NCI-H23 = tested on: NCI-H23
NCI-H460 = tested on: NCI-H460
SK-OV-3 = tested on: SK-OV-3

Measured: GI50

CCN(CC)CCNc1ccc2ncn3c4c(OC)ccc(OC)c4c(=O)c1c23
inactive: OVCAR-3 30.3 µM | UACC-257 > 100 µM | U-251 15.5 µM | IGROV-1 > 10 µM | A498 93.3 µM | MDA-MB-231 12 µM | CAKI-1 86.5 µM | DU-145 12.9 µM | PC-3 > 10 µM | NCI/ADR-RES 5.6 µM | Malme-3M 23.8 µM | MDA-N 10.8 µM | OVCAR-8 10.8 µM | ACHN 4.1 µM | SN12C > 10 µM | MCF7 3.57 µM | NCI-H23 22.6 µM | NCI-H460 4.4 µM | SK-OV-3 19.1 µM

COc1ccc(CN2C(=O)CCC/C=C\[C@H]2CI)cc1
inactive: OVCAR-3 11.6 µM | UACC-257 10.1 µM | U-251 13.6 µM | IGROV-1 15.6 µM | A498 12.5 µM | MDA-MB-231 11 µM | CAKI-1 10.3 µM | DU-145 13.3 µM | PC-3 8.07 µM | NCI/ADR-RES 13.7 µM | Malme-3M 11.1 µM | MDA-N 13.1 µM | OVCAR-8 14.4 µM | ACHN 14.3 µM | SN12C 14 µM | MCF7 10.7 µM | NCI-H23 15.1 µM | NCI-H460 13.1 µM | SK-OV-3 16 µM

CC(=O)N1CCOC12N=NC(C)(C)O2 (stereo unspecified)
inactive: OVCAR-3 > 100 µM | UACC-257 > 100 µM | U-251 > 100 µM | IGROV-1 > 100 µM | A498 > 100 µM | MDA-MB-231 > 100 µM | CAKI-1 > 100 µM | DU-145 > 100 µM | PC-3 > 100 µM | NCI/ADR-RES > 100 µM | Malme-3M > 100 µM | MDA-N > 100 µM | OVCAR-8 > 100 µM | ACHN > 100 µM | SN12C > 100 µM | MCF7 > 100 µM | NCI-H23 > 100 µM | NCI-H460 > 100 µM | SK-OV-3 > 100 µM

Cc1ccc(S(=O)(=O)NCCCCC(N)C(=O)O)cc1 (stereo unspecified)
inactive: OVCAR-3 > 100 µM | UACC-257 > 100 µM | U-251 > 100 µM | IGROV-1 > 100 µM | A498 > 100 µM | MDA-MB-231 > 100 µM | CAKI-1 > 100 µM | DU-145 > 100 µM | PC-3 > 100 µM | NCI/ADR-RES > 100 µM | Malme-3M > 100 µM | MDA-N > 100 µM | OVCAR-8 > 100 µM | ACHN > 100 µM | SN12C > 100 µM | MCF7 > 100 µM | NCI-H23 > 100 µM | NCI-H460 > 100 µM | SK-OV-3 > 100 µM
